Reference: publication PMC7037052, “Predicting the Blood-Brain Barrier Permeability of New Drug-Like Compounds via HPLC with Various Stationary Phases” (Molecules, 2020)

Legend:
Type in all cases: physicochemical
[1] = RP-HPLC retention on Purosphere RP-18e (ODS) column, buffer pH 7.4-acetonitrile; settings: for log kw, ODS: extrapolated to buffer pH 7.4 as mobile phase, 25 °C; for s ODS: slope of Soczewiński-Wachtmeister equation, acetonitrile φ 0.3–0.6
Protocol: (§1) Retention parameters reported as the log k values were calculated by the expression:(1) logk=log(tR−t0)/t0 where tR and t0 are the retention times of the solute and a non-retained compound (citric acid), respectively. They were used to calculate the log kw values, i.e., logarithms of retention parameter in the buffer as the mobile phase. For this purpose the Soczewiński-Wachtmeister’s equation was used:log k = log kw − sφ(2) where φ is the volume fraction of organic modifier in the mobile phase; k and kw are retention parameters corresponding to mixed effluent and buffer as the mobile phase, respectively. The slope s is characteristic of a given solute and chromatographic system. Strong linear relationships between log k and φ values were found for all the compounds in the range of effluent composition examined (R^2 > 0.9). The log kw values determined for the ODS (log kw, ODS), IAM (log kw, IAM) and Cholester (log kw, Cholester) columns were intercorrelated and the following linear relationships with a very good statistical quality were obtained:log kw, ODS = 0.691(± 0.094) + 0.982(± 0.044) log kw, IAM(3) SD = 0.257; R^2 = 0.8880; N = 65 log kw, ODS = 0.911(± 0.062) + 0.765(± 0.025) log kw, Cholester(4) SD = 0.192; R^2 = 0.9371; N = 65 log kw, IAM = 0.356(± 0.073) + 0.721(± 0.029) log kw, Cholester(5) SD = 0.224; R^2 = 0.9068; N = 65
(§2) Shimadzu Vp (Shimadzu, Izabelin, Poland) liquid chromatographic system equipped with LC 10AT pump, SPD 10A UV-Vis detector, SCL 10A system controller, CTO-10 AS chromatographic oven and Rheodyne injector valve with a 20 µL loop was applied in HPLC measurements. Three stationary phases were employed: • Purosphere RP-18e (ODS), 125 × 4 mm i.d., 5 µm (Merck); • IAM.PC.DD2 100 × 4.6 mm i.d., 10 µm (Regis Chemicals Company, Morton Grove, IL, USA); • Cosmosil Cholester, 75 × 2 mm i.d., 2.5 µm (Genore, Warsaw, Poland).
(§3) As mobile phases buffer-acetonitrile mixtures were used. The buffer was prepared from 0.01 mol L^−1 solutions of Na2HPO4 and citric acid and the pH 7.4 value was fixed before mixing with organic modifier. With the ODS column acetonitrile concentration in the effluent, expressed as a volume fraction (φ, v/v), was changed in the range 0.3–0.6, with the constant step of 0.1. The flow rate was 1 mL min^−1. With the IAM column acetonitrile concentration was changed in the range 0.2–0.5, also with the constant step of 0.1 and the flow rate was 1.3 mL min^−1. With the Cosmosil Cholester column acetonitrile concentration was changed in the range 0.4–0.6, with the constant step of 0.05 and the flow rate was 0.4 mL min^−1. Samples of test compounds were dissolved in acetonitrile—c.a. 0.005 mg mL^−1. […] They were detected under UV light at 210 and 254 nm. All measurements were carried out at 25 °C. The dead time values were measured from non-retained compound (citric acid) peaks. All reported log kw values are the average of at least three independent measurements. The extrapolated retention coefficients (logs kw) achieved by HPLC on ODS, IAM and Cholester stationary phases were used for modelling the log BB permeation of 65 drug-like compounds employed as a whole test set (Table 1).

[2] = RP-HPLC retention on IAM.PC.DD2 (immobilized artificial membrane) column, buffer pH 7.4-acetonitrile; settings: for log kw, IAM: extrapolated to buffer pH 7.4 as mobile phase, 25 °C; for s IAM: slope of Soczewiński-Wachtmeister equation, acetonitrile φ 0.2–0.5
Protocol: as §1, §2, §3

[3] = RP-HPLC retention on Cosmosil Cholester column, buffer pH 7.4-acetonitrile; settings: for log kw, Cholester: extrapolated to buffer pH 7.4 as mobile phase, 25 °C; for s Cholester: slope of Soczewiński-Wachtmeister equation, acetonitrile φ 0.4–0.6
Protocol: as §1, §2, §3

Row | SMILES | log kw, ODS [1] | s ODS [1] | log kw, IAM [2] | s IAM [2] | log kw, Cholester [3] | s Cholester [3]
1 | Cc1ccc(N2CCn3c2nnc(-c2ccco2)c3=O)cc1 [Compound 20] | 2.43 | 4.39 | 1.69 | 3.90 | 2.03 | 3.68
2 | O=c1c(CCc2ccccc2)nnc2n1CCN2c1ccccc1 [Compound 61] | 2.80 | 4.92 | 2.07 | 4.45 | 2.33 | 4.02
3 | Cc1ccc(N2CCn3c2nnc(Cc2cccc(C)c2)c3=O)cc1 [Compound 47] | 3.09 | 5.24 | 2.59 | 5.14 | 3.09 | 5.06
4 | COC(=O)Cc1nnc2n(c1=O)CCN2c1ccc(Cl)cc1 [Compound 11] | 2.36 | 4.44 | 1.82 | 4.39 | 1.82 | 3.55
5 | Cc1ccccc1N1CCn2c1nnc(-c1ccccc1)c2=O [Compound 30] | 2.12 | 4.01 | 1.53 | 3.52 | 1.88 | 3.50
6 | CCOc1ccc(N2CCn3c2nnc(Cc2ccc(C)cc2)c3=O)cc1 [Compound 52] | 3.14 | 5.36 | 2.43 | 5.02 | 3.07 | 5.02
7 | O=c1c(Cc2ccc(Cl)cc2)nnc2n1CCN2c1ccc(Cl)cc1 [Compound 60] | 4.02 | 6.45 | 3.17 | 6.18 | 3.68 | 5.82
8 | Cc1ccc(N2CCn3c2nnc(Cc2ccccc2)c3=O)cc1 [Compound 45] | 3.35 | 5.55 | 2.15 | 4.69 | 2.74 | 4.59
9 | CCOC(=O)Cc1nnc2n(c1=O)CCN2c1ccc(Cl)c(Cl)c1 [Compound 17] | 3.16 | 5.33 | 2.42 | 5.01 | 2.77 | 4.61
10 | O=c1c(-c2ccco2)nnc2n1CCN2c1cccc(Cl)c1 [Compound 25] | 2.75 | 4.85 | 2.08 | 4.55 | 2.36 | 4.05
11 | Cc1ccccc1N1CCn2c1nnc(Cc1ccccc1Cl)c2=O [Compound 56] | 3.01 | 4.95 | 2.02 | 4.31 | 2.34 | 4.05
12 | CCOc1ccc(N2CCn3c2nnc(-c2ccccc2)c3=O)cc1 [Compound 35] | 3.09 | 5.33 | 2.14 | 4.48 | 2.80 | 4.61
13 | O=c1c(Cc2cccc(Cl)c2)nnc2n1CCN2c1ccc(Cl)cc1 [Compound 59] | 3.61 | 5.85 | 3.15 | 6.01 | 3.67 | 5.75
14 | O=c1c(-c2ccccc2)nnc2n1CCN2c1cccc(Cl)c1 [Compound 38] | 3.29 | 5.70 | 2.64 | 5.41 | 3.20 | 5.20
15 | O=c1c(Cc2cccc(Cl)c2)nnc2n1CCN2c1ccccc1 [Compound 43] | 3.59 | 5.85 | 2.48 | 5.18 | 2.90 | 4.80
16 | COc1ccc(N2CCn3c2nnc(-c2ccccc2)c3=O)cc1 [Compound 34] | 2.59 | 4.62 | 1.71 | 3.91 | 2.27 | 3.80
17 | CCOc1ccc(N2CCn3c2nnc(Cc2ccccc2Cl)c3=O)cc1 [Compound 53] | 2.93 | 5.02 | 2.51 | 5.17 | 3.21 | 5.15
18 | CCOc1ccc(N2CCn3c2nnc(Cc2cccc(Cl)c2)c3=O)cc1 [Compound 54] | 3.35 | 5.55 | 2.73 | 5.61 | 3.31 | 5.22
19 | COc1ccc(N2CCn3c2nnc(-c2ccco2)c3=O)cc1 [Compound 23] | 1.91 | 3.82 | 1.19 | 3.13 | 1.53 | 3.05
20 | CCOC(=O)Cc1nnc2n(c1=O)CCN2c1ccccc1 [Compound 12] | 1.75 | 3.61 | 1.21 | 3.11 | 1.11 | 2.55
21 | CCOC(=O)Cc1nnc2n(c1=O)CCN2c1ccc(Cl)cc1 [Compound 16] | 2.80 | 4.88 | 2.11 | 4.51 | 2.37 | 4.19
22 | O=c1c(-c2ccccc2)nnc2n1CCN2c1ccccc1 [Compound 29] | 2.49 | 4.51 | 1.91 | 4.22 | 2.34 | 4.02
23 | O=c1c(-c2ccco2)nnc2n1CCN2c1ccccc1 [Compound 18] | 2.12 | 4.06 | 1.29 | 3.23 | 1.43 | 3.12
24 | Cc1ccc(N2CCn3c2nnc(CCc2ccccc2)c3=O)cc1 [Compound 62] | 3.23 | 5.44 | 2.41 | 5.01 | 2.84 | 4.70
25 | CCOc1ccc(N2CCn3c2nnc(CC(=O)OC)c3=O)cc1 [Compound 10] | 1.95 | 3.91 | 1.42 | 3.39 | 1.36 | 2.81
26 | Cc1ccc(N2CCn3c2nnc(Cc2cccc(Cl)c2)c3=O)cc1 [Compound 49] | 3.31 | 5.41 | 2.78 | 5.50 | 3.40 | 5.33
27 | COc1ccccc1N1CCn2c1nnc(-c1ccccc1)c2=O [Compound 33] | 1.98 | 3.99 | 1.47 | 3.62 | 1.69 | 2.94
28 | O=c1c(-c2ccco2)nnc2n1CCN2c1ccc(Cl)c(Cl)c1 [Compound 27] | 3.46 | 5.68 | 3.23 | 6.30 | 2.92 | 4.85
29 | Cc1cccc(N2CCn3c2nnc(-c2ccccc2)c3=O)c1 [Compound 31] | 2.93 | 5.02 | 2.26 | 4.68 | 2.77 | 4.42
